Among the data in US7214824B2, “Substituted N-sulfonylaminobenzyl-2-phenoxyacetamide compounds as VR1 receptor agonists” (Pfizer Inc., priority 2004, dated 2007) are melting point values, retold here.

Molecules are shown by their SMILES.

Take `CC(C)(C)c1ccc(OCC(=O)NCc2ccc(NS(C)(=O)=O)c(O)c2)cc1` [Example 12, 2-(4-tert-Butylphenoxy) -N-{3-hydroxy-4-[(methylsulfonyl)amino]benzyl}acetamide]: the melting point is 112.3 °C. Turning to `CC(C)(C)c1ccc(OCC(=O)NCc2ccc(NS(C)(=O)=O)cc2)cc1` [Example 9, 2-(4-tert-Butylphenoxy)-N-{4-[(methylsulfonyl)amino]benzyl}acetamide], the melting point amounted to 163.1 °C.
